The results in this text go back to patent US10653676B2 (Dana-Farber Cancer Institute, Inc., priority 2010, dated 2020).

One assay has as its system U2OS-DRGFP cells. Nature of the assay: DR-GFP reporter gene conversion assay for homologous recombination repair. The assay is classed as cell-based. The conditions noted are these: 24 h exposure; inhibition in the 0 to 5 μM range; FIG. 8A. As for the experimental part:
FIG. 8 is a composite figure showing that C527 inhibits homologous recombination repair. […] U2OS-DRGFP cells were transfected with I-SCE-I and then exposed to C527 at the indicated concentration for 24 h. Cells were then subjected to flow cytometry analysis. The percentage of GFP positive cells was normalized by solvent vehicle treated group. […] HeLa cells, integrated with the NHEJ reporter, were treated with C527 and analyzed as described in (FIG. 8A). […] HeLa cells were pre-treated with DMSO or C527 at the indicated concentration and then exposed to camptothecin (CPT) for 1 hr. RAD51 foci were detected using immunofluorescence.
HR repair activity was analyzed using DR-GFP reporter as previously described (Pierce A J et al, Genes Dev, 13: 2633). U2OS-DRGFP cells carrying a chromosomally integrated single copy of HR repair substrate were used to test the effect of C527 on HR. DSB-induced HR results in restoration and expression of GFP and was quantified by FACS. Briefly, 24 h after induction of chromosomal double-strand breaks through the expression of I-SceI, cells were treated with C527 for 24 h. Cells were subjected to FACS analysis and the percentage of GFP-positive cells was quantitated relative to the total viable cell number. For each analysis, 100,000 cells were processed. […]
A general note: Reporter assays use an easily measured gene product as a stand-in for the process of interest.

For assay [1], the system named is HeLa cells. Description: clonogenic assay. The assay is classed as cell-based, human. As to conditions: FIG. 9B. The protocol: FIG. 9 is a composite figure showing that C527 causes DNA damage and inhibits the proliferation of tumor cells. […] HeLa cells were treated with C527 at the indicated concentrations for 24 hrs, and cells were subjected to immunoblotting. Mitomycin C (MMC, 1 μM) was used as a positive control. […] HeLa cells were seeded in a 6-well plate and treated with C527 at the indicated concentrations. Cell proliferation was evaluated using a clonogenic assay.
Cells were seeded in 6-well plate at 500 cells per well followed by treatment with C527. Colonies were allowed to grow for 7-10 days, fixed with a solution containing 10% Methanol and 10% acetic acid at room temperature for 15 min and then stained with 1% crystal violet in methanol. Colonies of >50 cells were counted, and the surviving fraction was calculated and normalized to untreated control.
Impaired HR integrity may lead to genotoxic effect. Genotoxic agents are known to directly activate DNA damage response pathways, resulting in FANCD2 monoubiquitination and CHK1 phosphorylation (FIG. 9A).

The test system of assay [2] is HeLa cells. Nature of the assay: sensitization to DNA damaging agents, MTT assay. Type of assay: cell-based, human. As to conditions: 1 μM C527 for 24 h, FIG. 10. As for the experimental part:
FIG. 10 is a composite figure showing that C527 sensitizes tumor cells to DNA damaging agents. HeLa cells were plated in 96-well plates and treated with 1 μM C527 for 24 h, followed by treatment with mitomycin C (MMC, 0.25 μM), camptothcin (CPT, 0.1 μM), or etoposide for 4 more days. Cell viability was assessed using the MTT assay.
HeLa cells were seeded in 96-well plate and treated with C527 for 4 more days. 20 μL MTT (Sigma) at 5 mg/mL was added to each well and cells were left at 37° C. for incubation. 4 h later, the metabolic product was dissolved in a solution containing 10% SDS, 5% isopropanol and 0.01 mol/L HCl. Optical density at 565 nm was measured in an automated plate reader. The percentage of cell survival was determined by normalizing to solvent vehicle treated cells.
Inhibitors of the FA-BRCA pathway are known to sensitize tumor cells to the cytotoxic effects of ICL-[…] agents. Specifically, it is known that proteasome inhibitors block FANCD2 monoubiquitination, perhaps through depletion of intracellular pools of free ubiquitin, resulting in inhibition of HR repair (Chirnomas D, Taniguchi T, de la Vega M, et al. Chemosensitization to cisplatin by inhibitors of the Fanconi anemia/BRCA pathway. Mol Cancer Ther. 2006; 5:952-961). The ability of C527 to sensitize pretreated human cells to MMC or to other agents was tested.
On the technique in general: Tetrazolium dyes change colour on reduction, which living cells bring about.

In the case of `O=C1c2ccccc2C(=O)c2oc(-c3ccc(F)cc3)nc21` [Formula IV (527)], the “gene conversion (cellular GFP), HR activity” value in the assay on U2OS-DRGFP cells is “dose-dependent decreased in gene conversion”. The cell proliferation entry in the assay with HeLa cells [1] was “inhibited cell proliferation”. Also, the “sensitization of cells to CPT” value with HeLa cells [2] (then CPT 0.1 μM for 4 more days) is “sensitized cells”. For the same compound, in the assay on HeLa cells [2] (then MMC 0.25 μM for 4 more days), the “sensitization of cells to MMC” value was “sensitized cells”. The “sensitization of cells to etoposide” value in the assay with HeLa cells [2] (then etoposide for 4 more days) is given as “not to etoposide”.
